Test results taken from patent US6737383B1, “Herbicidal oxadiazolidines” (priority 1999, dated 2004).

Tests used:
[1] = test system: Alexandergrass; experiment: Test D Alexandergrass; format: in vivo, Brachiaria plantaginea; conditions: Postemergence, 0 to 100 scale
[2] = test system: bermuda-grass; experiment: Test D bermudagrass; format: in vivo, Cynodon dactylon; conditions: Postemergence, 0 to 100 scale
[3] = test system: large crabgrass; experiment: Test D large crabgrass; format: in vivo, Digitaria sanguinalis; conditions: Postemergence, 0 to 100 scale
[4] = test system: pitted morningglory; experiment: Test D pitted morningglory; format: in vivo, Ipomoea lacunosa; conditions: Postemergence, 0 to 100 scale
[5] = test system: purple nutsedge; experiment: Test D purple nutsedge; format: in vivo, Cyperus rotundus; conditions: Postemergence, 0 to 100 scale
[6] = test system: Spanishneedles; experiment: Test D Spanishneedles; format: in vivo, Bidens bipinnata; conditions: Postemergence, 0 to 100 scale
[7] = test system: surinam grass; experiment: Test D surinam grass; format: in vivo, Brachiaria decumbens; conditions: Postemergence, 0 to 100 scale
[8] = test system: Green foxtail; experiment: Test D green foxtail; format: in vivo; conditions: Postemergence, 0 to 100 scale, 0 no injury, 100 complete control
[9] = test system: Green foxtail; experiment: Test D green foxtail; format: in vivo; conditions: Rate 250 g/ha; Postemergence; 0 to 100 scale
[10] = test system: Green foxtail; experiment: Test D green foxtail; format: in vivo; conditions: Postemergence, 0 to 100 scale, 0 no injury, 100 complete control; remark: listed apart in the source
[11] = Rate 64 g/ha, 0 no injury, 100 complete control
[12] = Rate 16 g/ha, 0 no injury, 100 complete control
[13] = Rate 32 g/ha, 0 no injury, 100 complete control
[14] = Rate 125 g/ha, 0 no injury, 100 complete control

Compound | Plant response rating, Alexandergrass [1, 11] | Plant response rating, Bermudagrass [2, 11] | Plant response rating, Large crabgrass [3, 11] | Plant response rating, P. morninglory [4, 11] | Purple nutsedge plant response rating [5, 11] | Spanishneedles plant response rating [6, 11] | Surinam grass plant response rating [7, 11] | Plant response rating, Green foxtail ([8]; Rate 64 g/ha) | Plant response rating, Alexandergrass [1, 12] | Plant response rating, Alexandergrass [1, 13] | Plant response rating, Alexandergrass [1, 14] | Plant response rating, Alexandergrass ([1]; Rate 250 g/ha) | Plant response rating, Bermudagrass [2, 12] | Plant response rating, Bermudagrass [2, 13] | Plant response rating, Bermudagrass [2, 14] | Plant response rating, Bermudagrass ([2]; Rate 250 g/ha) | Plant response rating, Large crabgrass [3, 12] | Plant response rating, Large crabgrass [3, 13] | Plant response rating, Large crabgrass [3, 14] | Plant response rating, Large crabgrass ([3]; Rate 250 g/ha) | other results
CC(C)Cn1c(=O)on(C(=O)N(c2ccc(F)cc2)C(C)C)c1=O [Compound 169] | 65 | 100 | 100 | 0 | 0 | 0 | 65 | 100 |  |  |  |  |  |  |  |  |  |  |  |  | 
CC(C)N(C(=O)n1oc(=O)n(C2CC2)c1=O)c1ccc(Cl)cc1 [Compound 241] | 10 | 100 | 100 | 0 | 0 | 0 | 60 | 10 | 0 | 10 | 100 | 100 | 0 | 30 | 100 | 100 | 0 | 70 | 100 | 100 | Plant response rating, P. morninglory [4, 12]: 0; Plant response rating, P. morninglory [4, 13]: 0; Plant response rating, P. morninglory [4, 14]: 0; Plant response rating, P. morninglory ([4]; Rate 250 g/ha): 0; Plant response rating, Purple nutsedge [5, 12]: 0; Plant response rating, Purple nutsedge [5, 13]: 0; Purple nutsedge plant response rating [5, 14]: 0; Plant response rating, Purple nutsedge ([5]; Rate 250 g/ha): 0; Plant response rating, Spanishneedles [6, 12]: 0; Plant response rating, Spanishneedles [6, 13]: 0; Spanishneedles plant response rating [6, 14]: 0; Plant response rating, Spanishneedles ([6]; Rate 250 g/ha): 10; Plant response rating, Surinam grass [7, 12]: 0; Plant response rating, Surinam grass [7, 13]: 0; Surinam grass plant response rating [7, 14]: 100; Plant response rating, Surinam grass ([7]; Rate 250 g/ha): 100; Plant response rating, Green foxtail [9]: 100; Plant response rating, Green foxtail ([8]; Rate 125 g/ha): 100; Plant response rating, Green foxtail ([10]; Rate 16 g/ha): 0; Plant response rating, Green foxtail ([10]; Rate 32 g/ha): 10
CC(C)N(C(=O)n1oc(=O)n(C2CCC2)c1=O)c1ccccc1 [Compound 348] | 70 | 100 | 100 | 0 | 0 | 0 | 20 | 100 | 0 | 0 | 100 | 100 | 0 | 20 | 100 | 100 | 20 | 60 | 100 | 100 | Plant response rating, P. morninglory [4, 12]: 0; Plant response rating, P. morninglory [4, 13]: 0; Plant response rating, P. morninglory [4, 14]: 0; Plant response rating, P. morninglory ([4]; Rate 250 g/ha): 0; Plant response rating, Purple nutsedge [5, 12]: 0; Plant response rating, Purple nutsedge [5, 13]: 0; Purple nutsedge plant response rating [5, 14]: 0; Plant response rating, Purple nutsedge ([5]; Rate 250 g/ha): 0; Plant response rating, Spanishneedles [6, 12]: 0; Plant response rating, Spanishneedles [6, 13]: 0; Spanishneedles plant response rating [6, 14]: 0; Plant response rating, Spanishneedles ([6]; Rate 250 g/ha): 0; Plant response rating, Surinam grass [7, 12]: 0; Plant response rating, Surinam grass [7, 13]: 0; Surinam grass plant response rating [7, 14]: 80; Plant response rating, Surinam grass ([7]; Rate 250 g/ha): 100; Plant response rating, Green foxtail [9]: 100; Plant response rating, Green foxtail ([8]; Rate 125 g/ha): 100; Plant response rating, Green foxtail ([10]; Rate 16 g/ha): 0; Plant response rating, Green foxtail ([10]; Rate 32 g/ha): 20
CC(C)N(C(=O)n1oc(=O)n(C2CCC2)c1=O)c1ccc(Cl)cc1 [Compound 349] | 40 | 70 | 70 | 0 | 0 | 0 | 0 | 10 | 0 | 0 | 70 | 90 | 0 | 40 | 100 | 100 | 0 | 0 | 100 | 100 | Plant response rating, P. morninglory [4, 12]: 0; Plant response rating, P. morninglory [4, 13]: 0; Plant response rating, P. morninglory [4, 14]: 0; Plant response rating, P. morninglory ([4]; Rate 250 g/ha): 0; Plant response rating, Purple nutsedge [5, 12]: 0; Plant response rating, Purple nutsedge [5, 13]: 0; Purple nutsedge plant response rating [5, 14]: 0; Plant response rating, Purple nutsedge ([5]; Rate 250 g/ha): 0; Plant response rating, Spanishneedles [6, 12]: 0; Plant response rating, Spanishneedles [6, 13]: 0; Spanishneedles plant response rating [6, 14]: 0; Plant response rating, Spanishneedles ([6]; Rate 250 g/ha): 0; Plant response rating, Surinam grass [7, 12]: 0; Plant response rating, Surinam grass [7, 13]: 0; Surinam grass plant response rating [7, 14]: 10; Plant response rating, Surinam grass ([7]; Rate 250 g/ha): 60; Plant response rating, Green foxtail [9]: 100; Plant response rating, Green foxtail ([8]; Rate 125 g/ha): 80; Plant response rating, Green foxtail ([10]; Rate 16 g/ha): 0; Plant response rating, Green foxtail ([10]; Rate 32 g/ha): 0
